According to patent publication US20110207740A1, “PHARMACEUTICAL COMPOSITIONS” (priority 2003, published 2011):

Tests used:
pKa (titrated) = type: physicochemical
Method: As expected, solubility improves with ionization. However, even when essentially all of the compound carries a +1 charge, the aqueous solubility remains poor, e.g., at pH 4 the solubility is <2 μg/mL. Similarly, at pH 2 the average charge will be +2 but, the solubility for this strongly charged compound is only 1 mg/mL. Based on the pKa values, under still more acidic conditions this compound will have an average charge of +3 and the solubility might be expected to increase further. However, no further increase in solubility has been achieved, i.e., at pH 1.0 (0.1 NHCL) the solubility of this compound decreases to <1 mg/mL. This type of decrease in solubility is consistent with the formation of insoluble chloride salts.

[1] = Aqueous solubility (buffers, pH dependence); type: physicochemical
Description: As expected, solubility improves with ionization. […] This type of decrease in solubility is consistent with the formation of insoluble chloride salts. […] However, as shown in the Table 1 below, the A2a receptor antagonist compound described above has both low aqueous and non-aqueous solubility.

[2] = Non-aqueous solubility (ethanol, propylene glycol, soybean oil); type: physicochemical
Description: However, as shown in the Table 1 below, the A2a receptor antagonist compound described above has both low aqueous and non-aqueous solubility.

[3] = Formula 1 concentration in acidified propylene glycol stock solutions and after dilution with deionized water; type: physicochemical
Description: [table] […] In this way, the concentration of propylene glycol was decreased 10 fold from the initial concentration of 86% to a final concentration of 8.6%. […] Similarly, Formula 1 solubility should not be affected by the 2-10× dilution of sodium docusate as this surfactant will still be present at levels above its critical micelle concentration (CMC).

[4] = Extraction of Formula 1 from stock solutions into soybean oil; type: physicochemical; conditions: excess Formula 1
[5] = Formula I:docusate complex dissolved in propylene glycol (Example 1); type: physicochemical
Method: A non-aqueous embodiment of the formulations of the present invention was prepared as set forth by the following procedure. A first solution was prepared by adding 100 mg of the compound of Formula I above to 500 mL of 0.01 NHCL. Next, a second Solution was prepared by adding 20 grams of sodium docusate to 500 mL of 0.01 NHCL. These two solutions were mixed and a complex of the compound of Formula I and docusate sodium was precipitated from solution. The precipitate was thereafter separated by centrifuging the mixture, decanting the supernatant and then drying the residue complex.
The dried residue was then dissolved in a small quantity of propylene glycol and the concentration of the compound of Formula I in this solution was determined to be 2.5 mg/mL.

[6] = Precipitation from acidic aqueous solution in presence of sodium docusate; type: physicochemical; conditions: pH 2.0, 0.1 mg/mL aqueous solution
Description: For aqueous formulations of the present invention, surfactants such sodium docusate are typically added to improve aqueous solubility. However, sodium docusate actually decreases the aqueous solubility of 7-[2-[4-[4-(methoxyethoxy)phenyl]1-piperazinyl]ethyl]-2-(2-furanyl)-7H-pyrazolo[4,3-e]triazolo[1,5-c]pyrimidin-5-amine under acidic conditions. […] More specifically, by “ion-pair” it is meant to mean the non-covalent bonding of two oppositely charged molecules.

A2a receptor = A2a receptor (Homo sapiens, UniProt P29274); conditions: cited from earlier work
Chain of A2a receptor (P29274 whole entry): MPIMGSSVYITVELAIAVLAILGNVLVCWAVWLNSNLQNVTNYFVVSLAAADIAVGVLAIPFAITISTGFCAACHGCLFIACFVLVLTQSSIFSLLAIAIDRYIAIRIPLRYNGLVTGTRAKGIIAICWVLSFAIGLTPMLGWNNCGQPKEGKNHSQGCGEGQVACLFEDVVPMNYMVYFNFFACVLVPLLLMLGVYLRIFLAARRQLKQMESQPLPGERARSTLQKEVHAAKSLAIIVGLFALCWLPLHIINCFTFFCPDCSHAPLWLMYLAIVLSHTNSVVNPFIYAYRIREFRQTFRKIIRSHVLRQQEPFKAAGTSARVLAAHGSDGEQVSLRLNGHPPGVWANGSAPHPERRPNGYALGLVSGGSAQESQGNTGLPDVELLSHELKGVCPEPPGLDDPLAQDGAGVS

## COCCOc1ccc(N2CCN(CCn3ncc4c3nc(N)n3nc(-c5ccco5)nc43)CC2)cc1 [Formula 1, 7-[2-[4-[4-(methoxyethoxy)phenyl]1-piperazinyl]ethyl]-2-(2-furanyl)-7H-pyrazolo[4,3-e]triazolo[1,5-c]pyrimidin-5-amine]
pKa (titrated)
  pKa: 6.87
[1]; 0.1 N HCl, pH 1, simulated gastric fluid, pH 1.0 (0.1 NHCL)
  solubility: < 1000 µg/mL
[1]; Buffer pH 4
  Aqueous Solubility: 1.7 µg/mL
[1]; aqueous buffer, pH 3, aqueous buffer, Buffer pH 3
  solubility: 105 µg/mL
[1]; aqueous buffer, pH 4, aqueous buffer, Buffer pH 4
  solubility: < 2 µg/mL
[1]; aqueous buffer, pH 7.4, aqueous buffer, Buffer pH 7.4
  solubility: < 0.005 µg/mL
[1]; aqueous medium, pH 2, simulated gastric fluid, pH 2
  solubility: 1000 µg/mL
[1]; neutral pH
  Solubility in aqueous media: virtually insoluble
[2]; ethanol, organic solvent or mixture
  solubility: 100 µg/mL
[2]; propylene glycol, organic solvent or mixture, Propylene Glycol (neutral compound)
  solubility: ~30 µg/mL
[2]; soybean oil, oil or lipid
  solubility: < 70 µg/mL
[3]; Stock solution 1: acidified propylene glycol (86% v/v, citric acid/HCl to pH 3.4), undiluted
  Formula 1 concentration, 86% PG/(Stock): 9.8 mg/mL
[3]; Stock solution 1: acidified propylene glycol, diluted with deionized water DF2
  Formula 1 concentration, 43% PG/DF2: 4.6 mg/mL
[3]; Stock solution 1: acidified propylene glycol, diluted with deionized water DF4
  Formula 1 concentration, 17% PG/DF4: 1.9 mg/mL
[3]; Stock solution 1: acidified propylene glycol, diluted with deionized water DF10
  Formula 1 concentration, 8.6% PG/DF10: 0.97 mg/mL
[3]; Stock solution 2: acidified propylene glycol + 36 mg/mL Tween 80, undiluted
  Formula 1 concentration, 86% PG/(Stock): 8.7 mg/mL
[3]; Stock solution 2: acidified propylene glycol + Tween 80, diluted with deionized water DF2
  Formula 1 concentration, 43% PG/DF2: 4.0 mg/mL
[3]; Stock solution 2: acidified propylene glycol + Tween 80, diluted with deionized water DF4
  Formula 1 concentration, 17% PG/DF4: 1.8 mg/mL
[3]; Stock solution 2: acidified propylene glycol + Tween 80, diluted with deionized water DF10
  Formula 1 concentration, 8.6% PG/DF10: 0.78 mg/mL
[3]; Stock solution 3: acidified propylene glycol + 61 mg/mL docusate sodium, undiluted
  Formula 1 concentration, 86% PG/(Stock): 9.2 mg/mL
[3]; Stock solution 3: acidified propylene glycol + docusate sodium, diluted with deionized water DF2
  Formula 1 concentration, 43% PG/DF2: 0.14 mg/mL
[3]; Stock solution 3: acidified propylene glycol + docusate sodium, diluted with deionized water DF4
  Formula 1 concentration, 17% PG/DF4: 0.037 mg/mL
[3]; Stock solution 3: acidified propylene glycol + docusate sodium, diluted with deionized water DF10
  Formula 1 concentration, 8.6% PG/DF10: 0.011 mg/mL
[3]; acidified propylene glycol without docusate
  Maximum concentration relative to solubility in propylene glycol: 300 times
[3]; direct addition to acidified propylene glycol and docusate
  Concentration relative to solubility in propylene glycol: greater than 300 times
[3]; propylene glycol solution acidified to ionize the active compound
  Concentration in acidified propylene glycol solution: more than 9 mg/mL
[4]; extracted from stock solution 1 (acidified propylene glycol)
  Soybean Oil Amt. Extracted: 0.006 mg/mL
[4]; extracted from stock solution 2 (acidified propylene glycol + Tween 80)
  Soybean Oil Amt. Extracted: 0.007 mg/mL
[4]; extracted from stock solution 3 (acidified propylene glycol + docusate sodium)
  Soybean Oil Amt. Extracted: 0.28 mg/mL
[5]; Formula I:docusate complex in propylene glycol
  Solubility relative to compound alone in propylene glycol: more than 80 fold
[5]; dried Formula I:docusate sodium complex dissolved in propylene glycol
  Concentration of the compound of Formula I in propylene glycol solution: 2500 µg/mL
[5]; formulated with docusate sodium in acidified propylene glycol
  Concentration relative to active compound and propylene glycol only: 80 times
[6]
  Behaviour of solution in presence of sodium docusate: precipitate out of solution
A2a receptor
  Potency as an A2a receptor antagonist: considerable potency
